Experimental data: US11345711B2, “8,9-dihydroimidazo[1,2-a]pyrimido[5,4-e]pyrimidin-5(6H)-ones” (IMPACT THERAPEUTICS (SHANGHAI), INC, priority 2016, dated 2022)
Read-outs that look alike come from different tables or passages of the source.

Assays:
[1] = target: Wee1 (h) (Homo sapiens, UniProt P30291); experiment: Wee1 kinase (h) detection method, [γ-33P]-ATP filter assay; assay type: biochemical
[2] = test system: LoVo cells; experiment: MTT based cell viability assay on LoVo cells; settings: Homo sapiens, LoVo, 72 h, 3 d, read-out: IC50, growth inhibition of LoVo cells
Procedure, shortened: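 Inhibition of LoVo proliferation was derived as IC50 from a sigmoidal dose-response fit of cell survival. Readout was MTT (0.5 mg/mL, 4 h) with absorbance at 552/630/690 nm, after 3-day treatment at 37 °C. Eight-point series from 10 μM to 0.01 μM, DMSO control, 1% DMSO final.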

[3] = test system: NCI-H1299 cells; experiment: MTT based cell viability assay on NCI-H1299 cells; settings: Homo sapiens, read-out: IC50, growth inhibition of NCI-H1299 cells
Procedure, shortened: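 NCI-H1299 cells (1000/well, settled overnight) were exposed for 3 d at 37 °C, 5% CO2, to an eight-point series of 10 μM to 0.01 μM plus DMSO blank, as prepared in DMSO (final DMSO 1‰). MTT (0.5 mg/mL, 4 h) was read at 552/630/690 nm. IC50 came from sigmoidal dose-response fits of survival.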

Wee1 (h), sequence (P30291 whole entry): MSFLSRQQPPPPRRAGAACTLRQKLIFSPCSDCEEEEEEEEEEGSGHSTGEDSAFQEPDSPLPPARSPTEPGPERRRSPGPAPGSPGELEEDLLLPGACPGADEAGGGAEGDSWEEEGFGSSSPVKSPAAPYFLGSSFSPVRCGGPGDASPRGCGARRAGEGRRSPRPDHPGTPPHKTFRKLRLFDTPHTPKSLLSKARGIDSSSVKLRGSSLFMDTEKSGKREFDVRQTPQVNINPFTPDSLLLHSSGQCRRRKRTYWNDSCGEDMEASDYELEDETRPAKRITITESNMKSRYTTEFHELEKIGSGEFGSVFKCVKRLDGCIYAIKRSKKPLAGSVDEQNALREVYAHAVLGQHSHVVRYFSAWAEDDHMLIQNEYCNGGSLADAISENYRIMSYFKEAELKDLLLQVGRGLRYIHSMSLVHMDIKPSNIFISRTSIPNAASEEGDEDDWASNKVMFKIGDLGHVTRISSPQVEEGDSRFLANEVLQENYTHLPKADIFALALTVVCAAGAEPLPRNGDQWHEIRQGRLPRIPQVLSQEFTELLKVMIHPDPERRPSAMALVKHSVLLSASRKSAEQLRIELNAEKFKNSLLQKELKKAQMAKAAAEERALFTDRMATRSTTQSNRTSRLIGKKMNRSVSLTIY

Compound	Inh. (%) of Wee1 kinase enzyme activity ([1]; C 0.01 μm compound)	Inh. (%) of Wee1 kinase enzyme activity ([1]; C 0.1 μm compound)	Inh. (%) of Wee1 kinase enzyme activity ([1]; C 1 μm compound)	IC50 [2]	IC50 ([3]; NCI-H1299, NCI-H1299 cells)	IC50 ([3]; NCI-H1299 cells)
CN1CCN(c2c(Cl)cc(Nc3ncc4c(n3)N3CCN=C3N(c3c(Cl)cccc3Cl)C4=O)cc2Br)CC1 [Example 155, 6-(2,6-Dichlorophenyl)-2-((3-bromo-5-chloro-4-(4-methylpiperazin-1-yl)phenyl)amino)-8,9-dihydroimidazo[1,2-a]pyrimido[5,4-e]pyrimidin-5(6H)-one]	16%	66%	94%	74.1 nM	109 nM	–
CN1CCN(c2ccc(Nc3ncc4c(n3)N3CCN=C3NC4=O)cc2)CC1 [Example 93, 2-((4-(4-Methylpiperazin-1-yl)phenyl)amino)-8,9-dihydroimidazo[1,2-a]pyrimido[5,4-e]pyrimidin-5(6H)-one]	–	–	0%	> 100000 nM	–	> 10000 nM
Cc1cc(Nc2ncc3c(n2)N2CCN=C2N(c2c(Cl)cccc2Cl)C3=O)cc(Cl)c1N1CCN(C)CC1 [Example 151, 6-(2,6-Dichlorophenyl)-2-((3-chloro-5-methyl-4-(4-methylpiperazin-1-yl)phenyl)amino)-8,9-dihydroimidazo[1,2-a]pyrimido[5,4-e]pyrimidin-5(6H)-one]	42%	98%	97%	30.8 nM	175 nM	–
CN(C)C1CCN(c2c(Cl)cc(Nc3ncc4c(n3)N3CCN=C3N(c3c(Cl)cccc3Cl)C4=O)cc2Cl)CC1 [Example 142, 6-(2,6-Dichlorophenyl)-2-((3,5-dichloro-4-(4-(dimethylamino)piperidin-1-yl)phenyl)amino)-8,9-dihydroimidazo[1,2-a]pyrimido[5,4-e]pyrimidin-5(6H)-one]	22%	75%	95%	51.4 nM	109 nM	–
CN1CCc2c(Cl)cc(Nc3ncc4c(n3)N3CCN=C3N(c3c(Cl)cccc3Cl)C4=O)cc2C1 [Example 130, 6-(2,6-Dichlorophenyl)-2-((5-chloro-2-methyl-1,2,3,4-tetrahydroisoquinolin-7-yl)amino)-8,9-dihydroimidazo[1,2-a]pyrimido[5,4-e]pyrimidin-5(6H)-one]	–	–	93%	624 nM	–	243 nM

Continued by falling IC50 [2], values first:

Inh. (%) of Wee1 kinase enzyme activity ([1]; C 0.01 μm compound)	Inh. (%) of Wee1 kinase enzyme activity ([1]; C 0.1 μm compound)	Inh. (%) of Wee1 kinase enzyme activity ([1]; C 1 μm compound)	IC50 [2]	IC50 ([3]; NCI-H1299, NCI-H1299 cells)	IC50 ([3]; NCI-H1299 cells)	Compound
33%	89%	98%	339 nM	–	461 nM	CC(C)N1CCN(c2ccc(Nc3ncc4c(n3)N3CCN=C3N(c3c(F)cccc3Cl)C4=O)cc2)CC1 [Example 6, 6-(2-Chloro-6-fluorophenyl)-2-((4-(4-isopropylpiperazin-1-yl)phenyl)amino)-8,9-dihydroimidazo[1,2-a]pyrimido[5,4-e]pyrimidin-5(6H)-one]
–	–	87%	290 nM	–	447 nM	Cc1cccc(C)c1N1C(=O)c2cnc(Nc3ccc4c(c3)CN(C)CC43CC3)nc2N2CCN=C21 [Example 17, 6-(2,6-Dimethylphenyl)-2-((2′-methyl-2′,3′-dihydro-1′H-spiro[cyclopropane-1,4′-isoquinolin]-7′-yl)amino)-8,9-dihydroimidazo[1,2-a]pyrimido[5,4-e]pyrimidin-5(6H)-one]
12%	60%	91%	117 nM	362 nM	–	Cc1cccc(Cl)c1N1C(=O)c2cnc(Nc3cc(Cl)c(N4CCN(C)CC4)c(Cl)c3)nc2N2CCN=C21 [Example 172, 6-(2-Chloro-6-methylphenyl)-2-((3,5-dichloro-4-(4-methylpiperazin-1-yl)phenyl)amino)-8,9-dihydroimidazo[1,2-a]pyrimido[5,4-e]pyrimidin-5(6H)-one]
